# Results taken from ChEMBL document CHEMBL1201862, “PubChem BioAssay data set” (2004).
#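 Assay format: 96-well plates, 48-hour exposure. GI50 = concentration required for 50% inhibition of growth.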 Activity calls are given as the source filed them. Rule as the data show it: active = GI50 up to about 1.1 µM and inactive = higher.
# How the values were obtained:
# Assay in all cases: growth of human tumour cells (NCI), 48 h
# [1] = test system: UACC-257
# [2] = test system: SR
# [3] = test system: NCI-H522
# [4] = test system: OVCAR-3
# [5] = test system: HCC 2998
# [6] = test system: M14
# [7] = test system: HCT-116
# [8] = test system: EKVX
# [9] = test system: OVCAR-8
# [10] = test system: MDA-MB-435
# [11] = test system: K562
# [12] = test system: NCI-H460
# [13] = test system: SN12C
# [14] = test system: ACHN
# [15] = test system: HT-29
# [16] = test system: SF-295
# [17] = test system: DU-145
# [18] = test system: SK-MEL-28
# [19] = test system: SF-268
# [20] = test system: CCRF-CEM
# [21] = test system: CAKI-1
# [22] = test system: SF-539
# [23] = test system: A549
# [24] = test system: MOLT-4
# [25] = test system: SK-MEL-2
# [26] = test system: SW-620
# [27] = test system: OVCAR-5
# [28] = test system: SNB-75
# [29] = test system: NCI/ADR-RES
# [30] = test system: Hs-578T
# [31] = test system: UO-31
# [32] = test system: BT-549
# [33] = test system: HOP-62
# [34] = test system: RPMI-8226
# [35] = test system: KM12
# [36] = test system: PC-3
# [37] = test system: U-251
# [38] = test system: SK-MEL-5
# [39] = test system: LOX IMVI
# [40] = test system: IGROV-1
# [41] = test system: HOP-92
# [42] = test system: HCT-15
# [43] = test system: HL-60
# [44] = test system: SNB-19
# [45] = test system: MDA-MB-231
# [46] = test system: COLO 205
# [47] = test system: MDA-N
# [48] = test system: NCI-H23
# [49] = test system: TK-10
# [50] = test system: UACC-62
# [51] = test system: OVCAR-4
# [52] = test system: T47D
# [53] = test system: MCF7
# [54] = test system: 786-0
# [55] = test system: SK-OV-3
# [56] = test system: A498
# [57] = test system: NCI-H226
# [58] = test system: Malme-3M
# [59] = test system: RXF 393
structure (smiles),measurement,setting,value
COC(=O)c1c(C)cc(OC)c(C/C=C(\C)CCCc2coc(C=C(C)C)c2)c1OC,GI50,[1],> 100 µM (inactive)
same,GI50,[2],7.6 µM (inactive)
same,GI50,[3],14.9 µM (inactive)
same,GI50,[4],> 100 µM (inactive)
same,GI50,[5],> 100 µM (inactive)
same,GI50,[6],> 100 µM (inactive)
same,GI50,[7],> 100 µM (inactive)
same,GI50,[8],> 100 µM (inactive)
same,GI50,[9],> 100 µM (inactive)
same,GI50,[10],> 100 µM (inactive)
same,GI50,[11],> 100 µM (inactive)
same,GI50,[12],> 100 µM (inactive)
same,GI50,[13],> 100 µM (inactive)
same,GI50,[14],> 100 µM (inactive)
same,GI50,[15],74.8 µM (inactive)
same,GI50,[16],> 100 µM (inactive)
same,GI50,[17],> 100 µM (inactive)
same,GI50,[18],> 100 µM (inactive)
same,GI50,[19],1.71 µM (inactive)
same,GI50,[20],41.5 µM (inactive)
same,GI50,[21],> 100 µM (inactive)
same,GI50,[22],49 µM (inactive)
same,GI50,[23],> 100 µM (inactive)
same,GI50,[24],37.4 µM (inactive)
same,GI50,[25],> 100 µM (inactive)
same,GI50,[26],> 100 µM (inactive)
same,GI50,[27],> 100 µM (inactive)
same,GI50,[28],21.3 µM (inactive)
same,GI50,[29],> 100 µM (inactive)
same,GI50,[30],18.2 µM (inactive)
same,GI50,[31],> 100 µM (inactive)
same,GI50,[32],> 100 µM (inactive)
same,GI50,[33],> 100 µM (inactive)
same,GI50,[34],99.5 µM (inactive)
same,GI50,[35],> 100 µM (inactive)
same,GI50,[36],> 100 µM (inactive)
same,GI50,[37],> 100 µM (inactive)
same,GI50,[38],> 100 µM (inactive)
same,GI50,[39],> 100 µM (inactive)
same,GI50,[40],> 100 µM (inactive)
same,GI50,[41],> 100 µM (inactive)
same,GI50,[42],> 100 µM
same,GI50,[43],21.9 µM (inactive)
same,GI50,[44],> 100 µM (inactive)
same,GI50,[45],> 100 µM (inactive)
same,GI50,[46],> 100 µM (inactive)
same,GI50,[47],> 100 µM (inactive)
same,GI50,[48],> 100 µM (inactive)
same,GI50,[49],> 100 µM (inactive)
same,GI50,[50],> 100 µM (inactive)
same,GI50,[51],> 100 µM (inactive)
same,GI50,[52],43 µM (inactive)
same,GI50,[53],> 100 µM (inactive)
same,GI50,[54],> 100 µM (inactive)
Oc1cccc2cc(Cl)cnc12,GI50,[1],6.27 µM (inactive)
same,GI50,[55],50.4 µM (inactive)
same,GI50,[3],2.75 µM (inactive)
same,GI50,[4],2.99 µM (inactive)
same,GI50,[56],23.8 µM (inactive)
same,GI50,[5],27.1 µM (inactive)
same,GI50,[6],9.06 µM (inactive)
same,GI50,[7],4.46 µM (inactive)
same,GI50,[8],4.88 µM (inactive)
same,GI50,[57],27.4 µM (inactive)
same,GI50,[9],3.7 µM (inactive)
same,GI50,[10],14.7 µM (inactive)
same,GI50,[11],3.87 µM (inactive)
same,GI50,[12],6.95 µM (inactive)
same,GI50,[13],7.33 µM (inactive)
same,GI50,[14],8.95 µM (inactive)
same,GI50,[15],28.2 µM (inactive)
same,GI50,[16],3.39 µM (inactive)
same,GI50,[17],31.5 µM (inactive)
same,GI50,[18],58.7 µM (inactive)
same,GI50,[19],3.85 µM (inactive)
same,GI50,[20],2.45 µM (inactive)
same,GI50,[21],55.1 µM (inactive)
same,GI50,[22],10.3 µM (inactive)
same,GI50,[23],7.08 µM (inactive)
same,GI50,[24],3.78 µM (inactive)
same,GI50,[25],40.8 µM (inactive)
same,GI50,[26],7.18 µM (inactive)
same,GI50,[27],28 µM (inactive)
same,GI50,[28],28.1 µM (inactive)
same,GI50,[29],3.48 µM (inactive)
same,GI50,[30],6.93 µM (inactive)
same,GI50,[31],8.09 µM (inactive)
same,GI50,[32],22.6 µM (inactive)
same,GI50,[33],5.77 µM (inactive)
same,GI50,[34],4.91 µM (inactive)
same,GI50,[35],14.8 µM (inactive)
same,GI50,[58],> 30.3 µM (inactive)
same,GI50,[36],10.6 µM (inactive)
same,GI50,[59],12.3 µM (inactive)
same,GI50,[37],9.08 µM (inactive)
same,GI50,[38],8.41 µM (inactive)
same,GI50,[39],5.04 µM (inactive)
same,GI50,[40],7.16 µM (inactive)
same,GI50,[41],43.2 µM (inactive)
same,GI50,[42],3.82 µM
same,GI50,[43],1.08 µM (active)
same,GI50,[44],> 32.4 µM (inactive)
same,GI50,[45],9.68 µM (inactive)
same,GI50,[46],31.4 µM (inactive)
same,GI50,[47],31.9 µM (inactive)
same,GI50,[48],6.12 µM (inactive)
same,GI50,[49],39.5 µM (inactive)
same,GI50,[50],5.51 µM (inactive)
same,GI50,[51],3.38 µM (inactive)
same,GI50,[52],4.42 µM (inactive)
same,GI50,[53],3.4 µM (inactive)
same,GI50,[54],23.6 µM (inactive)
